# In patent US20250283049A1, “AGENT FOR CULTURING ORGANOID IN ABSENCE OF EXTRACELLULAR MATRIX” (KEIO UNIVERSITY, priority 2022, published 2025):
# What was measured:
# Type in all cases: cell-based
# [1] = tested on: human small intestine-derived organoids; assay: Immunostaining for localization of YAP and Ki67; settings: 10 μM Lats-IN; in both presence and absence of Matrigel; approximately 10% without Lats-IN
# Description: (§1) Human small intestine-derived organoids and human large intestine-derived organoids were cultured in the absence and presence of Matrigel (registered trademark) and in the absence and presence of a LATS kinase inhibitor (final concentration: 10 μM) in the same manner as in Experimental Example 2. Subsequently, immunostaining was performed to confirm the localization of YAP. In addition, Ki67, a marker for cell proliferation, was detected to confirm proliferating cells.
# The fields of view in the second, third, and fourth panels from the top correspond to the area enclosed in the square in the uppermost panel.
# The fields of view in the second, third, and fourth panels from the top correspond to the area enclosed in the square in the uppermost panel. The scale bar represents 50 μm. […]
# (§2) FIG. 7 is a graph summarizing the results of FIGS. 5 and 6. As a result, in both the presence and absence of Matrigel (registered trademark), in the absence of Lats-IN, YAP was localized in the cytoplasm, and when the number of Ki67-positive cells, which indicates cell proliferation, was counted, the percentage of Ki67-positive cells was approximately 10% of the total cells. In contrast, in both the presence and absence of Matrigel (registered trademark), in the presence of Lats-IN, the number of cells in which YAP was localized in the nucleus was counted. […]
# [2] = tested on: crypts isolated from human large intestine-derived tissue; assay: Organoid establishment from isolated crypts in absence of Matrigel; time-course ATP and passaging; settings: Lats-IN 10 μM, without Lats-IN died after second passage
# Description: Crypts were isolated from human small intestine- and large intestine-derived tissues. The isolated crypts were cultured in the absence of Matrigel (registered trademark) and in the absence or presence of Lats-IN (final concentration: 10 μM).
# FIG. 10 is a graph showing the results of a time-course measurement of proliferation of the crypts isolated from the human large intestine-derived tissue over time. The cell proliferation was measured by measuring ATP using a commercially available kit (product name “CellTiter-Glo 3D,” Promega Corporation). The vertical axis of the graph represents luminescence intensity (relative value) indicating the amount of ATP present.
# [3] = tested on: human large intestine-derived organoids; assay: Niche factor removal; organoid proliferation by ATP (CellTiter-Glo 3D); settings: absence of Matrigel; Lats-IN 10 μM; some WRENAIF niche factors removed
# Description: (§3) In this experimental example, the relationship between LATS inhibition and the niche factors essential for organoid culture was examined. FIG. 14 presents graphs showing the results of measuring the proliferation of human small intestine-derived organoids and human large intestine-derived organoids cultured under conditions in which all WRENAIF niche factors were added, and under conditions in which some of these niche factors were removed. As a medium to which all of the WRENAIF niche factors were added, the medium whose composition is shown in Table 1 above was used, and as a medium from which some of these niche factors were removed, a medium from which the corresponding niche factors were removed from the medium whose composition is shown in Table 1 above was used. The cell proliferation was measured by measuring ATP using a commercially available kit (product name “CellTiter-Glo 3D,” Promega Corporation). The vertical axis of the graph represents luminescence intensity (relative value) indicating the amount of ATP present.
# (§4) In addition, on the horizontal axis, added niche factors are shown in black, and niche factors not added are shown in light color.
# [4] = tested on: human small intestine-derived organoids; assay: as above; settings: absence of Matrigel; Lats-IN 10 μM; some WRENAIF niche factors removed
# Description: as §3, §4
# [5] = tested on: human large intestine-derived organoids; assay: Immunostaining for localization of YAP and Ki67; settings: 10 μM Lats-IN; in both presence and absence of Matrigel; approximately 10% without Lats-IN
# Description: as §1
# The leftmost column of FIG. 6 presents photographs showing the results of immunostaining of the human large intestine-derived organoids cultured in the presence of Matrigel (registered trademark) and in the absence of Lats-IN (Ctrl). […]
# as §2
structure (smiles),measurement,setting,value
O=C(N=c1sccn1Cc1ccccc1)c1c[nH]c2ncccc12 [Lats-IN],percentage of Ki67-positive cells,[1],≥ 50 % of the total cells
same,passaging and proliferation of isolated crypts (organoid establishment),[2],able to undergo passage almost continuously without cessation of cell proliferation
same,cell proliferation without one or two niche factors,[3],cells proliferated
same,cell proliferation without one or two niche factors,[4],cells proliferated
same,percentage of Ki67-positive cells,[5],≥ 50 % of the total cells
